Measured values from paper PMC6407917, “Identification of GSK3186899/DDD853651 as a Preclinical Development Candidate for the Treatment of Visceral Leishmaniasis” (Journal of Medicinal Chemistry, 2018).

What was measured:
Assay in all cases: biochemical
Set-up in all cases: species or system HEK293/K-562/placenta mixed human extract; Kinobeads chemoproteomic competition binding, quantified by TMT LC-MS/MS, dose response up to 20 uM
RIPK1 = RIPK1 (Homo sapiens, UniProt Q13546)
PRKD1 = PRKD1 (Homo sapiens, UniProt Q15139)
mTOR = mTOR (Homo sapiens, UniProt P42345)
PRKCI = PRKCI (Homo sapiens, UniProt P41743)
ACVR1 = ACVR1 (Homo sapiens, UniProt Q04771)
CSNK1D = CSNK1D (Homo sapiens, UniProt P48730)
BMPR1A = BMPR1A (Homo sapiens, UniProt P36894)
PDPK1 = PDPK1 (Homo sapiens, UniProt O15530)
PRKAR2B = PRKAR2B (Homo sapiens, UniProt P31323)
TGFBR1 = TGFBR1 (Homo sapiens, UniProt P36897)
ATM = ATM (Homo sapiens, UniProt Q13315)
LYN = LYN (Homo sapiens, UniProt P07948)
ARAF = ARAF (Homo sapiens, UniProt P10398)
MAP3K2 = MAP3K2 (Homo sapiens, UniProt Q9Y2U5)
DDR2 = DDR2 (Homo sapiens, UniProt Q16832)
MAST2 = MAST2 (Homo sapiens, UniProt Q6P0Q8)
MAP2K4 = MAP2K4 (Homo sapiens, UniProt P45985)
LCK = LCK (Homo sapiens, UniProt P06239)
MYLK3 = MYLK3 (Homo sapiens, UniProt Q32MK0)
AKT1 = AKT1 (Homo sapiens, UniProt P31749)
TESK2 = TESK2 (Homo sapiens, UniProt Q96S53)

Measured: IC50

Sequence of TESK2 (Q96S53 whole entry): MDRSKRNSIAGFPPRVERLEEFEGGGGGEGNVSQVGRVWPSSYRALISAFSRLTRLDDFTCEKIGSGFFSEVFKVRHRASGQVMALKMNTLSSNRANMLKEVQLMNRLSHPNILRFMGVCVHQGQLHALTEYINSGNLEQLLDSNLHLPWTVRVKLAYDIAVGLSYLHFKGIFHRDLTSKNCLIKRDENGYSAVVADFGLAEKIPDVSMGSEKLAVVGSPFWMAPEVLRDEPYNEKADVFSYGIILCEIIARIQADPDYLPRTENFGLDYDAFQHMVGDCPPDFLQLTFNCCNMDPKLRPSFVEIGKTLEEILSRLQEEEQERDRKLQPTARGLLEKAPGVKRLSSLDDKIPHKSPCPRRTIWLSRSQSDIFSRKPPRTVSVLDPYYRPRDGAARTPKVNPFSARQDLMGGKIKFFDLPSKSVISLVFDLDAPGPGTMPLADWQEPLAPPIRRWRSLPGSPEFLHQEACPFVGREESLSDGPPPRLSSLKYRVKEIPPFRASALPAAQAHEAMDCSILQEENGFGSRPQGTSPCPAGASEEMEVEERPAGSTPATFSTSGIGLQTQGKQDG
Sequence of ACVR1 (Q04771 whole entry): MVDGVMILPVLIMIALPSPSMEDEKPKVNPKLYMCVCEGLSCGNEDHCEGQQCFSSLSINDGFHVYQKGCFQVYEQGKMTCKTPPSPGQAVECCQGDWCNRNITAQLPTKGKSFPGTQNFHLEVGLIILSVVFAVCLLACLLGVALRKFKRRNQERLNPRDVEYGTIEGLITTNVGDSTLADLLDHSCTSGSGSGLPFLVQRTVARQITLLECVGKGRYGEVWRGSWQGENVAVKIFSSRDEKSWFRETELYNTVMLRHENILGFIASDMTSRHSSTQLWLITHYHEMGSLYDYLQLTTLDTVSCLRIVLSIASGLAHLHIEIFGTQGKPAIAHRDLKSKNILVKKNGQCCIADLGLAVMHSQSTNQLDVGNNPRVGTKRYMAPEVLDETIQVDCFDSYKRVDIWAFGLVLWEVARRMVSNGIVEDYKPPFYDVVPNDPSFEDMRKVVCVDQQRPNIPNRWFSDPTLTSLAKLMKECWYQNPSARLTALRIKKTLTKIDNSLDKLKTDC
Sequence of AKT1 (P31749 whole entry): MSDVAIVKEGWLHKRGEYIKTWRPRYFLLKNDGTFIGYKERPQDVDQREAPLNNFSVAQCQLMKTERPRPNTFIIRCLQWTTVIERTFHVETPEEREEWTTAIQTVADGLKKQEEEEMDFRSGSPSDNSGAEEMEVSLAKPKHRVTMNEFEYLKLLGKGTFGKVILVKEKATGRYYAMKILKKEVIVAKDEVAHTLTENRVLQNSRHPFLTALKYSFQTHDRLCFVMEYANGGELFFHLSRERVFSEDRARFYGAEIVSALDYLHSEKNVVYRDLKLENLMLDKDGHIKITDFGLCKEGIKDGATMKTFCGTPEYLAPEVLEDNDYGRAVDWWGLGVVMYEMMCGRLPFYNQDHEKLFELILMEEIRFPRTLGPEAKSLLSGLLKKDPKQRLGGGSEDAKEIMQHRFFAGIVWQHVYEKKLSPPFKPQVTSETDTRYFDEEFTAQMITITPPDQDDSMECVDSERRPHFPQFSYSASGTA
Sequence of ARAF (P10398 whole entry): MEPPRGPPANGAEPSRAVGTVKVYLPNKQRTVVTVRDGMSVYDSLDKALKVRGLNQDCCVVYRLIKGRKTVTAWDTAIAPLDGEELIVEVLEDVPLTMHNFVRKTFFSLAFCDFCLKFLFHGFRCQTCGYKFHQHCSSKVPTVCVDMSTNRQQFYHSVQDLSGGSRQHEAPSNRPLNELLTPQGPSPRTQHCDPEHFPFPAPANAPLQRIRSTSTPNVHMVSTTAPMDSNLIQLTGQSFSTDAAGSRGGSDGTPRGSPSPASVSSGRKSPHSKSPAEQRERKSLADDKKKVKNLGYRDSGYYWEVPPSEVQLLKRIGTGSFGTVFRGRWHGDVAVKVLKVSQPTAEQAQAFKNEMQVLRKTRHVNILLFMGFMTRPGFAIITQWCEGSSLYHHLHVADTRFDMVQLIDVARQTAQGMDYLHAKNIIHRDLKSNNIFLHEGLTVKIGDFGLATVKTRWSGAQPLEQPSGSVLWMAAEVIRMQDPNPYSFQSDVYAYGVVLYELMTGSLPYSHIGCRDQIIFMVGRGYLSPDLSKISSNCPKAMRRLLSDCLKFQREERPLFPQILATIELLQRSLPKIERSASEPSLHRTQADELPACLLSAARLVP
Sequence of PRKD1 (Q15139 whole entry): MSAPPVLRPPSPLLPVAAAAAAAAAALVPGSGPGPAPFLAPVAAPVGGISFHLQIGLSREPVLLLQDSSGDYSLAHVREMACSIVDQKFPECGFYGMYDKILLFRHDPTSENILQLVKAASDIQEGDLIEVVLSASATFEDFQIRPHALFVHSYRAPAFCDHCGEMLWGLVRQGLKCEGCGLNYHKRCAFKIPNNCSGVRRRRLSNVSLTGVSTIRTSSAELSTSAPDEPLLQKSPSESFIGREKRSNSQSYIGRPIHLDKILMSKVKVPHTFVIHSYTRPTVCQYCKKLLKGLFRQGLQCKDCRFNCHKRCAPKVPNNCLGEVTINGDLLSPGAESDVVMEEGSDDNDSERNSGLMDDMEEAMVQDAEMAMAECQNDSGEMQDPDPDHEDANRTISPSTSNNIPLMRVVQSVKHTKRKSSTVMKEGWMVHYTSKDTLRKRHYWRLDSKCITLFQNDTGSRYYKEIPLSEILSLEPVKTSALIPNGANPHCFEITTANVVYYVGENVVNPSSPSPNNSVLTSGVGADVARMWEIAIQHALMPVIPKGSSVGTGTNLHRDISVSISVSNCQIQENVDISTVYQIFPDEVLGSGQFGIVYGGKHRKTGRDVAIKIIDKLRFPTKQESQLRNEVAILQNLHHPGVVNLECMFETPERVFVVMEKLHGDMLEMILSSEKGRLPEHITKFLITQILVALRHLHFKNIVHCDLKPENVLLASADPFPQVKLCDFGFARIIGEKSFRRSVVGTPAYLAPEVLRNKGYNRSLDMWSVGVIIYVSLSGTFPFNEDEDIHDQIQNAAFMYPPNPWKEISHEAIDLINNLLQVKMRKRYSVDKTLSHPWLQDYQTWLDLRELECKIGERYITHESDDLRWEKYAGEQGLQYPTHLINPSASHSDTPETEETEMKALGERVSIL
Sequence of MAST2 (Q6P0Q8 whole entry): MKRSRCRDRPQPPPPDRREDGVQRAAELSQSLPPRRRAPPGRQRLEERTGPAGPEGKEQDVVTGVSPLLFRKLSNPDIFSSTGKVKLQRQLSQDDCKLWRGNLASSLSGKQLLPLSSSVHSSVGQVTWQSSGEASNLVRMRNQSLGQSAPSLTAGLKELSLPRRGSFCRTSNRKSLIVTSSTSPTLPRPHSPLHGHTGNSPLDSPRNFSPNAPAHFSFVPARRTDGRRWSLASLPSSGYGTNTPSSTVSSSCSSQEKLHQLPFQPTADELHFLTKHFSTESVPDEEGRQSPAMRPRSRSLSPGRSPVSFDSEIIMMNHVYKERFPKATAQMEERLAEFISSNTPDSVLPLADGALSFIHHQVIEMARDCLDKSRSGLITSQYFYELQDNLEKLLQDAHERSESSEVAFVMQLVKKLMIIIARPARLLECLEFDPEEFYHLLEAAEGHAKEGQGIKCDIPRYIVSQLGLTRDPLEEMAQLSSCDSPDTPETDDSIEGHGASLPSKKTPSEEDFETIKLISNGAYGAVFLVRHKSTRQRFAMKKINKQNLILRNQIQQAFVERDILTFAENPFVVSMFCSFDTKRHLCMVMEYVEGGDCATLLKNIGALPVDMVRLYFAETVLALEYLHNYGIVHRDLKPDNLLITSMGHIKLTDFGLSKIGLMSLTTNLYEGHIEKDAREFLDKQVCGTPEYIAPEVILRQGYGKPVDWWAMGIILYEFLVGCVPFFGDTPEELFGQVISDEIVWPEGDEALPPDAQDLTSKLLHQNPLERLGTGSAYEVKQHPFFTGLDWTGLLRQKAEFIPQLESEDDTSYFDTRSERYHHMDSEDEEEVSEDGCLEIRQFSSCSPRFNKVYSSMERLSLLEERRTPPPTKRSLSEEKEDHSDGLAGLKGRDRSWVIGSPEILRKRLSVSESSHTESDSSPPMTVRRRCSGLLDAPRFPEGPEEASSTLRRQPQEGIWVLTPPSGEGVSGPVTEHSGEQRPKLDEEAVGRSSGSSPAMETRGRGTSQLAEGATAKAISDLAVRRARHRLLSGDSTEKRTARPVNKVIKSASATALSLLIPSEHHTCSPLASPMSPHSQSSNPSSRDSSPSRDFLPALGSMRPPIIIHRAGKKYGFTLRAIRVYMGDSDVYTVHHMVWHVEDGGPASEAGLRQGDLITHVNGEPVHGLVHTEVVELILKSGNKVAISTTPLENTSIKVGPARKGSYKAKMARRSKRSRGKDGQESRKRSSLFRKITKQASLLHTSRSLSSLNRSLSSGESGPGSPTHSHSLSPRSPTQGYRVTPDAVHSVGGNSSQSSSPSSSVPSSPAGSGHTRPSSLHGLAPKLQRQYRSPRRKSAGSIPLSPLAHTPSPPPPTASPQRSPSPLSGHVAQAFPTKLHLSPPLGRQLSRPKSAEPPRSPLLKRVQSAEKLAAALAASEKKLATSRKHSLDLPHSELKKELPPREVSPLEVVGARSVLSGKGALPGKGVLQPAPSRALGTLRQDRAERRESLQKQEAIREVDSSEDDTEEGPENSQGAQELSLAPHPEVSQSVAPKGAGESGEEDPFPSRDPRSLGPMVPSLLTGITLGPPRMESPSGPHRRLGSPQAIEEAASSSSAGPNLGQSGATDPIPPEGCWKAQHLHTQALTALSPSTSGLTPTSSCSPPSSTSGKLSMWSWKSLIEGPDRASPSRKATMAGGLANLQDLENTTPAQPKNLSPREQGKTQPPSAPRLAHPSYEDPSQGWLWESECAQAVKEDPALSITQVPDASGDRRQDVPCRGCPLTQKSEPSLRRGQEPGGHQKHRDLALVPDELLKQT

COc1ccccc1-c1n[nH]c2nc(N[C@H]3CC[C@H](NS(=O)(=O)CCC(F)(F)F)CC3)nc(OC)c12 [compound 31, 3,3,3-Trifluoro-N-(trans-4-((4-methoxy-3-(2-methoxyphenyl)-1H-pyrazolo[3,4-d]pyrimidin-6-yl)amino)cyclohexyl)propane-1-sulfonamide]
≥ 20 µM: all assays above
